Laboratory results from patent US20080317723A1, “LYMPHATIC ENDOTHELIAL CELLS MATERIALS AND METHODS” (VEGENICS LIMITED, priority 2001, published 2008).

Experiments:
[1] = tested on: VEGFR-3 expressing lymphatic endothelial cells; assay: Culture and proliferation (PCNA) of isolated VEGFR-3 positive lymphatic endothelial cells; format: cell-based, human; conditions: complete medium with 5% serum supplemented with VEGF 10 ng/ml or VEGF-C 100 ng/ml
Experimental: In order to compare the effects of the VEGFs on the survival of lymphatic versus blood vascular endothelial cells, specific antibodies and magnetic microbeads were used to isolate and to culture the VEGFR-3 positive and negative cells. Briefly, in this protocol, three separate sets of VEGFR-3 expressing lymphatic endothelial cells were cultured: a first set was cultured in complete medium containing 5% serum, the second set was cultured in complete medium containing 5% serum and supplemented with VEGF (10 ng/ml,) and the third set was cultured in complete medium containing 5% serum supplemented with VEGF-C (100 ng/ml). The VEGFR-3 positive cells were grown for five days after sorting in serum or supplemented with VEGFC and then stained for podoplanin and proliferating cell nuclear antigen (PCNA). The nuclei were stained with the Hoechst fluorochrome. If supplemented with VEGF-C or VEGF, the cells were stained for PCNA. Immunofluorescence double-staining of non-sorted cells or VEGFR-3 negative and VEGFR-3 positive cell populations with antibodies against podoplanin or VEGFR-3 also was performed.

VEGFR-1/EpoR = target: T1, VEGFR-1/EpoR (Homo sapiens, UniProt P17948); assay: Ba/F3 bioassay, viability (MTT) of VEGFR-1/EpoR cells; format: cell-based; conditions: FIG. 1A
T1 construct: a chimeric receptor containing the extracellular domain of human VEGFR-1, VEGFR-2 or VEGFR-3 fused with the transmembrane and cytoplasmic domains; expressed in transfected cells
Experimental: FIG. 1A-FIG. 1C. Analysis of the receptor-specificities of different VEGFs using the Ba/F3 bioassay. Measurement of the viability of Ba/F3 cells expressing the chimeric receptors VEGFR-1/EpoR (FIG. 1A), VEGFR-2/EpoR (FIG. 1B) or VEGFR-3/EpoR (FIG. 1C) in the presence of different VEGFs at indicated concentrations. Cell viability was determined using the MTT assay. Data represent the mean values from triplicate assays (mean±s.d.). FIG. 1D-FIG. 1G. Biosensor analysis of the interaction of VEGF-C (FIG. 1D, FIG. 1E) and VEGF-C156S (FIG. 1F, FIG. 1G) with VEGFR-3 (FIG. 1D, FIG. 1F) and VEGFR-2 (FIG. 1E, FIG. 1G). Chimeric receptor proteins were immobilized onto a carboxymethylated dextran surface. Growth factors were injected over the surface at a flow rate of 20 μl/min at the indicated concentrations. The sensorgrams shown have been subtracted with the corresponding signal obtained when the same sample was passed over a blank control channel.
Bioassay for VEGFR stimulation. […]
VEGF is an endothelial cell mitogen which has been also shown to protect endothelial cells from starvation and TNF-a induced apoptosis via activation of VEGFR-2 (Gerber et al, J. Biol. Chem., 273:30336-30343, 1998; Spyridopoulos et al., J. Mol. Cell. Cardiol., 29:1321-1330, 1997). […] The specificities of the growth factors used were determined using a cell survival bioassay. […]

T1 sequence (P17948 27-758 limits assumed): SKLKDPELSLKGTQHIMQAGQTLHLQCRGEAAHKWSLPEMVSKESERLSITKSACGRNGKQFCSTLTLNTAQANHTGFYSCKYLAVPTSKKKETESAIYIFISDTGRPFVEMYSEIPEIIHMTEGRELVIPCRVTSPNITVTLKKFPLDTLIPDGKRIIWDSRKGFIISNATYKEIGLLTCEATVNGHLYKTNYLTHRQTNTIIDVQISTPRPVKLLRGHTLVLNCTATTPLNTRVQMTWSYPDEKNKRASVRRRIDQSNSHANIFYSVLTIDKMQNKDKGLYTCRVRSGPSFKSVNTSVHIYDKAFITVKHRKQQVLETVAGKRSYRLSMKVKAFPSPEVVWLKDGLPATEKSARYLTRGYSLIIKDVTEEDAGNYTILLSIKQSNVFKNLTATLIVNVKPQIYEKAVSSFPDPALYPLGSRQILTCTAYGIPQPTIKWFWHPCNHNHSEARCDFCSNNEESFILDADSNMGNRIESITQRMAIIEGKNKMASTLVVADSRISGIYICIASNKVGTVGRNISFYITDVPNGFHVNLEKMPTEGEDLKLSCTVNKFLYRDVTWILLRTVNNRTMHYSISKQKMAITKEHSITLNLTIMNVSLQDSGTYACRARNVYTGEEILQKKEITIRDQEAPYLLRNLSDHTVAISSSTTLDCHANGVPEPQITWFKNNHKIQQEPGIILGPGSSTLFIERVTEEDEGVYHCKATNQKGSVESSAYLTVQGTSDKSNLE

Question: What does the source list for VEGF?
Answer: proliferation of isolated podoplanin positive cells [1]: most of the podoplanin positive cells proliferated readily; survival of VEGFR-1/EpoR cells (VEGFR-1/EpoR): able to induce the survival of VEGFR-1/EpoR cells
